In patent publication US11911394B2, “Compound and method for the prevention of transmission of influenza virus” (Hoffmann-La Roche Inc., priority 2019, dated 2024):
Read-outs that look alike come from different tables or passages of the source.

Test: Example 2 antiviral pharmacokinetic analysis, endpoint donor plasma
Format: in vivo
Settings: ferret, sc, 4 mg/kg, 4 mg/kg s.c., read-out: baloxavir in plasma ±SD
Procedure: The active form baloxavir acid (S-033447, hereafter BXA) and pro-drug oseltamivir phosphate (hereafter OST) was kindly provided by Shionogi & Co., Ltd., Japan. The vehicle for BXA delivery was methyl cellulose (Sigma-Aldrich, Australia) in 0.5 w/v % aqueous solution prepared with sterile water (hereafter MC solution). BXA in suspension with MC solution (1 mg/mL) was prepared using an agate mortar and pestle, and was delivered to reversibly anaesthetised animals in a single treatment consisting of 4 subcutaneous injections at 4 locations on the dorsal region (total dose 4 mg/kg per animal). Animals in the placebo group were dosed identically using MC solution (1 mL/kg) alone. OST doses (10 mg/mL) were prepared in sugar solution (1 g/mL) and delivered bis in die (8 hr interval) to non-sedated ferrets by the oral route (total dose 10 mg/kg/day).
Endpoint BXA and placebo-treated donor blood samples were collected in heparinised tubes, and plasma isolated by centrifugation. Plasma samples were stored at −80° C. until transport to analytical facilities at Shionogi & Co., Ltd.
Experiment 1: Antiviral treatment for all donors commenced at 1 DPI, and naïve recipient ferrets were co-housed immediately following treatment. Body weight and temperature were monitored daily from all animals. Daily nasal wash samples were collected 1 mL of PBS from 1 DPI to 3 DPI for donor animals, and 1 day post exposure (DPE) to 10 DPE for recipient animals. Donors were sacrificed at 3 DPI (2 DPE), and blood was collected from BXA- and placebo-treated ferrets by cardiac puncture. Recipients were sacrificed at 10 DPE.
Experiment 2: Antiviral treatment commenced at 1 DPI, and recipient co-housing was delayed until 24 hr following treatment (2 DPI). Body weight and temperature were monitored daily from all animals. […]
Experiment 3: Antiviral treatment commenced at 2 DPI, and recipients were co-housed immediately afterwards. Body weight and temperature were monitored daily from all animals. […]

## O=C1c2c(O)c(=O)ccn2N([C@@H]2c3ccccc3SCc3c2ccc(F)c3F)[C@@H]2COCCN12 [baloxavir, baloxavir acid]
Example 2 Experiment 1, 48 hours post treatment
  concentration at 48 h: 10.2 ± 2.8 ng/mL
Example 2 Experiment 2, 72 hr post treatment
  concentration at 72 h: 12.5 ± 2.4 ng/mL
Example 2 Experiment 3, 72 hr post treatment (so in the source)
  concentration at 72 h: 24.5 ± 4.03 ng/mL
